Patent publication US20250090461A1, “CELL-WALL BINDING PROTEIN SPECIFICALLY TARGETING CUTIBACTERIUM ACNES” (MASSACHUSETTS INSTITUTE OF TECHNOLOGY, priority 2022, published 2025)

Experiments:
Cutibacterium acnes [1] = assay: Minimum Inhibitory Concentration of benzoyl peroxide on C. acnes; type: cell-based; settings: OTC product containing 10% BPO used; FIG. 4
Excerpt: An OTC product containing 10% BPO was used in this experiment.
The advantage of SmartArrow is that it will deliver the active ingredients to where the bacteria reside. As a result, a much lower dosage of bioactive can be loaded in SmartArrow to achieve high killing of the bacteria compared to untargeted liposomes. As little as 0.002% BPO can achieve total killing of C. acnes (FIG. 4). Considering the BPO concentrations found in the retail market ranges from 2.5%-10%, which is ˜1000-fold higher than what is needed to kill the bacteria, it is not surprising to find most users of these retail products routinely suffer several side effects such as dry peeling skin. By using the SmartArrow approach, we can conservatively load 0.02% BPO into a liposome, which is 100× less than the retail products, to achieve total bacterial killing and reducing the side effects to a minimum.

[2] = test system: Enterococcus faecalis strain OG1 RF; assay: Confocal microscopy binding of EGFP-tagged lysin to E. faecalis; settings: 2.5 mg/ml; FIG. 1 E1-3
Description: (§1) To check the binding spectrum of the engineered lysin SmartNovaC, 2.5 mg/ml of SmartNovaC was applied against four C. acnes strains, Enterococcus faecalis strain OG1 RF, Staphylococcus epidermidis strain PCI1200 and Pseudomonas aeruginosa strain PA14. Since SmartNovaC was cloned in a plasmid that would co-express the EGFP tag, the fluorescent lysin can be visualized using confocal microscopy.

Cutibacterium acnes [3] = assay: Confocal microscopy binding of EGFP-tagged lysin to C. acnes; settings: 2.5 mg/ml; four C. acnes strains (6919, 11828, 11827, HC038-PAI); FIG. 1
Description: as §1
To further examine whether SmartNovaC is the only lysin that binds specifically to C. acnes, the binding of NovaC and another lysin DukeC2Rap that were synthesized with EGFP co-expressed were tested. DukeC2Rap lysin was obtained as CBD of Doucette lysin targeting Propionibacterium freudenreichii species, which is from the same genus as C. acnes. The nucleotide and amino acid sequences of the DukeC2Rap are provided below.
NovaC and DukeC2Rap at concentrations of 2.5 mg/ml and 1.3 mg/ml, respectively, were tested for binding against two C. acnes strains.

[4] = test system: Staphylococcus epidermidis strain PCI1200; assay: Confocal microscopy binding of EGFP-tagged lysin to S. epidermidis; settings: 2.5 mg/ml; FIG. 1 G1-3
Description: as §1

[5] = test system: Pseudomonas aeruginosa strain PA14; assay: Confocal microscopy binding of EGFP-tagged lysin to P. aeruginosa; settings: 2.5 mg/ml; FIG. 1 F1-3
Description: as §1

Compound	BPO concentration achieving total killing of C. acnes (MIC) (Cutibacterium acnes [1]) [%]	binding to E. faecalis OG1RF [2]	binding to C. acnes (green fluorescence) (Cutibacterium acnes [3])	binding to S. epidermidis [4]	binding to P. aeruginosa PA14 [5]
O=C(OOC(=O)c1ccccc1)c1ccccc1 [BPO, benzoyl peroxide]	0.002	–	–	–	–
SmartNovaC (GSVNKLHHDVGVVQVQNGDLSKRVDALSWV)	–	could not bind	specific binding	could not bind	could not bind
